Where a name gives a salt, the structure may show the parent alone.
Assays:
[1] = target: T1, α-1B adrenoceptor (rat spleen) (Rattus norvegicus, UniProt P15823); assay: Functional antagonism: phenylephrine (PE)-induced contraction of rat spleen; assay type: cell-based; conditions: for Kb: vs phenylephrine, Schild plot, read-out: pA2 Rat Spleen [α-1B] (converted); for more potent effect on spleen smooth muscle: PE-induced contraction, pA2 models compared
T1 construct: PE-induced contraction of rat spleen; from tissue; host or cells: rat spleen
T1 sequence (P15823 1-515): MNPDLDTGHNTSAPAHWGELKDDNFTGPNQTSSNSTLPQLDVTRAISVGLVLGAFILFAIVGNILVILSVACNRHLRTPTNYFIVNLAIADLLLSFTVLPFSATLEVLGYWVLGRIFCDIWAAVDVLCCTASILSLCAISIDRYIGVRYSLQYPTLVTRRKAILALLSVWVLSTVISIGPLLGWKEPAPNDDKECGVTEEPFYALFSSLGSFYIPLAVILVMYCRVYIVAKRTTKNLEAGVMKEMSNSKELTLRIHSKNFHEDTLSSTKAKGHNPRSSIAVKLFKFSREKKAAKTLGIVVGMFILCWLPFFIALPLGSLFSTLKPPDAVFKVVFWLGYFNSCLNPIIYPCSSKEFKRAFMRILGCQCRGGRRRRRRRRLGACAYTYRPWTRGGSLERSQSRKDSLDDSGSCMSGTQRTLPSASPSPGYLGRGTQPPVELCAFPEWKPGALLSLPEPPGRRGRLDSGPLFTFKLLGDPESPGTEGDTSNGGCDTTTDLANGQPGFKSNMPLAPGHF
Excerpt: (§1) Functional assays indicative of pharmacologically defined α-1 adrenoceptors were used to further characterize compounds. Inhibition of phenylephrine (PE)-induced contraction of canine prostate smooth muscle can be correlated with α-1A adrenoceptor activation. […] For each of these models, agonist dose response curves were repeated against increasing concentrations of test agent to derive a Schild plot [log ([…]) against log (molarity of test agent)] to determine the pA2.

[2] = target: T2, α-1A adrenoceptor (dog prostate) (Canis lupus, UniProt A0A8I3NK63); assay: Functional antagonism: phenylephrine (PE)-induced contraction of canine prostate strips; assay type: cell-based; conditions: Table 2a; vs phenylephrine; Schild plot
T2 sequence (A0A8I3NK63 1-466): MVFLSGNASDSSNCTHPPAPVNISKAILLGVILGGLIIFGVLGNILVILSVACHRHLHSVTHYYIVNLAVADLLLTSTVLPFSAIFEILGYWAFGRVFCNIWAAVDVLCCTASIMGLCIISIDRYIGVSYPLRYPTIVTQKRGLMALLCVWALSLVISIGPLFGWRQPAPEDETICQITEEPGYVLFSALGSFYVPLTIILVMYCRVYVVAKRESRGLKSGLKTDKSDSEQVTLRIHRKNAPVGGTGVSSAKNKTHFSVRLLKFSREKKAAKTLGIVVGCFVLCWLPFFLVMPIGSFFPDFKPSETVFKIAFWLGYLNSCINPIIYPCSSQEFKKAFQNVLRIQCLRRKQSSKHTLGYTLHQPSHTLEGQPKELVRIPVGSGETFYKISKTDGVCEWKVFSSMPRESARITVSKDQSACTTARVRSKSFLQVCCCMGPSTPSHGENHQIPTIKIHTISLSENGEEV
Procedure, shortened: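 Canine prostate smooth-muscle strips in vitro, contracted by phenylephrine. Agonist dose–response curves repeated at rising test-agent concentrations; pA2 derived by Schild plot […].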

[3] = target: T3, α-1A adrenoceptor (rat vas deferens) (Rattus norvegicus, UniProt P43140); assay: Functional antagonism: phenylephrine (PE)-induced contraction of rat vas deferens; assay type: cell-based; conditions: vs phenylephrine; Schild plot; read-out: pA2 Rat Vas Deferens [α-1A] (converted)
T3 construct: PE-induced contraction of rat vas deferens; from tissue; host or cells: rat vas deferens
T3 sequence (P43140 1-466): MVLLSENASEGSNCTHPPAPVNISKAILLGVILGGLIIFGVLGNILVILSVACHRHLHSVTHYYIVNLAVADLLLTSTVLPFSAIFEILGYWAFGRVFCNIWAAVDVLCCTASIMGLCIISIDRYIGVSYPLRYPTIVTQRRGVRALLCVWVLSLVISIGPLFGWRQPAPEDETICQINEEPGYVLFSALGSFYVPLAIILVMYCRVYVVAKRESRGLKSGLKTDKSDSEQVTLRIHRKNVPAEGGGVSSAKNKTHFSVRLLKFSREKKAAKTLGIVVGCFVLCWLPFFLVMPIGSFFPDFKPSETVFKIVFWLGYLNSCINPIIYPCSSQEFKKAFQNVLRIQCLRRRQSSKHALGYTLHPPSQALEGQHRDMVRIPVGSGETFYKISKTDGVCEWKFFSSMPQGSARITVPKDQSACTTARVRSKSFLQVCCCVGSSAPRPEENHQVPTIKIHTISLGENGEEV
Excerpt: as §1

[4] = cited from earlier work; for urinary flow rates and subjective symptom scores: longer term studies
[5] = women during antihypertensive treatment; cited from earlier work

| Compound | Kb [1] | pA2 Dog Prostate [α-1A] [2] | Kb [3] | urinary flow rates and subjective symptom scores [4] | more potent effect on spleen smooth muscle [1] | urinary incontinence [5] | clinical efficacy in BPH ([4]; human, in vivo) |
| --- | --- | --- | --- | --- | --- | --- | --- |
| COc1ccc2sc3c(=O)n(CCN4C[C@@H]5CCc6c(OC)cccc6[C@@H]5C4)c(=O)[nH]c3c2n1 [Example 64, dihydrochloride] | 25.1 nM | 9.63 | 0.794 nM |  |  |  |  |
| COc1cccc2c1CC[C@H]1CN(CCn3c(=O)[nH]c4c(sc5cccc(C)c54)c3=O)C[C@@H]21 [Example 69, 3-[2-((3aR,9bR)-cis-6-Methoxy-2,3,3a,4,5,9b-hexahydro-[1H]-benz[e]isoindol-1-yl)ethyl]-[1]-9-methyl-benzothieno[3,2-d]pyrimidine-2,4(1H,3H)-dione hydrochloride] | 69.2 nM | 8.25 | 2.51 nM |  |  |  |  |
| COc1cccc2c1CC[C@@H]1CN(CCn3c(=O)[nH]c4c(sc5ncccc54)c3=O)C[C@H]21 [Example 75, hydrochloride] | 79.4 nM | 8.04 | 5.89 nM |  |  |  |  |
| COc1cccc2c1CC[C@H]1CN(CCn3c(=O)[nH]c4c(oc5ncccc54)c3=O)C[C@@H]21 [Example 76, hydrochloride] | 23.4 nM | 8.74 | 25.1 nM |  |  |  |  |
| COc1cccc2c1CC[C@H]1CN(CCn3c(=O)[nH]c4c(oc5nccnc54)c3=O)C[C@@H]21 [Example 87, hydrochloride] | 87.1 nM | 8.67 | 18.2 nM |  |  |  |  |
| COc1cccc2c1CC[C@H]1CN(CCn3c(=O)[nH]c4c(sc5nc(Cl)cnc54)c3=O)C[C@@H]21 [Example 88, 3-[2-(cis-(3aR,9bR)-6-Methoxy-2,3,3a,4,5,9b-hexahydro-[1H]-benz[e]isoindol-1-yl)ethyl]-7-chloro-pyrazino[2',3':4,5]thieno[3,2-d]pyrimidine-2,4(1H,3H)-dione hydrochloride] | 44.7 nM | 9.35 | 1.1 nM |  |  |  |  |
| COc1cnc2c(n1)sc1c(=O)n(CCN3C[C@@H]4CCc5c(OC)cccc5[C@@H]4C3)c(=O)[nH]c12 [Example 89, hydrochloride] | 7.76 nM | 9.03 | 1.17 nM |  |  |  |  |
| COc1cccc2c1CC[C@H]1CN(CCn3c(=O)c4sc5nccnc5c4n(C(C)C)c3=O)C[C@@H]21 [Example 90, hydrochloride] | 26.9 nM | 9.05 | 1.45 nM |  |  |  |  |
| COCCOCCn1c(=O)n(CCN2C[C@@H]3CCc4c(OC)cccc4[C@@H]3C2)c(=O)c2sc3nccnc3c21 [Example 102, hydrochloride] | 17.4 nM | 8.96 | 3.63 nM |  |  |  |  |
| COc1cccc2c1CC[C@H]1CN(CCn3c(=O)[nH]c4c(sc5ccc(O)nc54)c3=O)C[C@@H]21 [Example 107, dihydrochloride] | 37.2 nM | 9.22 | 20 nM |  |  |  |  |
| COc1cccc2c1CC[C@H]1CN(CCn3c(=O)[nH]c4c(sc5ccc(C#N)nc54)c3=O)C[C@@H]21 [Example 108, dihydrochloride] | 11.2 nM | 9.03 | 3.39 nM |  |  |  |  |
| O=C(NC1CCN(CCc2c[nH]c3ccccc23)CC1)c1ccccc1 [indoramin] |  |  |  | significant improvements in urinary flow rates and subjective symptom scores |  |  |  |
| COc1cc2nc(N3CCN(C(=O)c4ccco4)CC3)nc(N)c2cc1OC [prazosin] |  |  |  | significant improvements in urinary flow rates and subjective symptom scores | more potent effect on spleen smooth muscle by approximately an order of magnitude | urinary incontinence developed in women |  |
| COc1cc2nc(N3CCN(C(=O)C4CCCO4)CC3)nc(N)c2cc1OC (stereo not shown) [terazosin] |  |  |  | significant improvements in urinary flow rates and subjective symptom scores | more potent effect on spleen smooth muscle by approximately an order of magnitude |  | Clinical efficacy of α-1 antagonists in BPH has been demonstrated |

From patent publication US5597823A, “Tricyclic substituted hexahydrobenz [e]isoindole alpha-1 adrenergic antagonists” (priority 1995, dated 1997)
